# Source: ChEMBL document CHEMBL1201862, “PubChem BioAssay data set” (2004)
# Calls of active or inactive are those of the source.
# Tests used:
# [1] = P. falciparum Dd2 growth inhibitors, dose response, SYBR Green, cherry-picked samples (AID 1159567); type: functional, cell-based
# [2] = P. falciparum Dd2 growth inhibitors, dose response, SYBR Green, dry powder samples (AID 1159566); type: functional, cell-based;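 note: potency for growth inhibition with lower SYBR green DNA signal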
# [3] = HepG2 cell cytotoxicity, dose response, cytotoxicity control, plate reader, dry powder samples (AID 1159569); type: functional, cell-based;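 note: inhibitor potency with signal falling toward the positive control level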
# [4] = P. falciparum 3D7-ScDHODH growth inhibitors, dose response, SYBR Green, dry powder samples (AID 1159570); type: functional, cell-based;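 note: parasite growth measured after 72 hours of compound exposure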
# [5] = cytotoxicity in OVCAR8 ovarian cancer cells, dose response, PAX8 project, cell-based, plate reader, dry powder samples (AID 743197); type: functional; conditions: OVCAR-8
# [6] = P. falciparum ATP4 D1247Y mutant growth inhibitors, dose response, NITD609-resistant line, SYBR Green, dry powder (AID 1159571); type: functional, cell-based;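 note: parasites synchronized at ring stage by sorbitol before testing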
# [7] = biological target: Paired box protein Pax-8 (Homo sapiens, UniProt Q06710); experiment: inhibitors of PAX8-driven TPO luciferase reporter, dose response, RMG-I cells, cherry-pick (AID 687027); type: functional, cell-based;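 note: luciferase reporter driven by Pax8 target thyroperoxidase promoter measured by SteadyGlo luminescence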
# Sequence of Paired box protein Pax-8 (Q06710 whole entry): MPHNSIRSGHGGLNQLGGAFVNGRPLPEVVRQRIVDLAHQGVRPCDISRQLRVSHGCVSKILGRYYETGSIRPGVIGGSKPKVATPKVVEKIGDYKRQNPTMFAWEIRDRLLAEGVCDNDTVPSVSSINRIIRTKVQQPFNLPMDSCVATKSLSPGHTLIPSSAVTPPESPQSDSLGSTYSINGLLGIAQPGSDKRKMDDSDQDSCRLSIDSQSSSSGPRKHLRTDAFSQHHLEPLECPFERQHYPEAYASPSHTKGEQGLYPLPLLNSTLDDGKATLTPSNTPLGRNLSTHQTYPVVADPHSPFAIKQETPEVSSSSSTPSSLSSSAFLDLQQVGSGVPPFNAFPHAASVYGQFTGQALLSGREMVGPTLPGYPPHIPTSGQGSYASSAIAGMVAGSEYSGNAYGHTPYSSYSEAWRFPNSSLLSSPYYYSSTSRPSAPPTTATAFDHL
# [8] = biological target: T1, Cytochrome P450 3A4 (Homo sapiens, UniProt P08684)
# T1 sequence (P08684 whole entry): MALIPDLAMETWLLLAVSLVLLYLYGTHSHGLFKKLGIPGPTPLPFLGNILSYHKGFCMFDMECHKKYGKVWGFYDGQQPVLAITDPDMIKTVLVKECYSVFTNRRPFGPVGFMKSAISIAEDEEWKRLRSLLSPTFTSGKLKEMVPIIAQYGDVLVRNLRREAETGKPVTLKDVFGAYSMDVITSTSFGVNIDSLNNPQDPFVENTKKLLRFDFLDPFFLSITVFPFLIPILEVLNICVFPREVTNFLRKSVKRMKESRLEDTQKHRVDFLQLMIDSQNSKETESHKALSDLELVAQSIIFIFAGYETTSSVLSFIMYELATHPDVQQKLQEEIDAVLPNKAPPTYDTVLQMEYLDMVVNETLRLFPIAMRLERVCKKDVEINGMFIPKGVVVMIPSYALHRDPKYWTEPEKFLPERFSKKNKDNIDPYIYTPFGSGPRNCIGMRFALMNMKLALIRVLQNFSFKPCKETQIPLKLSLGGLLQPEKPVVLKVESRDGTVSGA
# [9] = biological target: Cytochrome P450 2C9 (Homo sapiens, UniProt P11712)
# Sequence of Cytochrome P450 2C9 (P11712 whole entry): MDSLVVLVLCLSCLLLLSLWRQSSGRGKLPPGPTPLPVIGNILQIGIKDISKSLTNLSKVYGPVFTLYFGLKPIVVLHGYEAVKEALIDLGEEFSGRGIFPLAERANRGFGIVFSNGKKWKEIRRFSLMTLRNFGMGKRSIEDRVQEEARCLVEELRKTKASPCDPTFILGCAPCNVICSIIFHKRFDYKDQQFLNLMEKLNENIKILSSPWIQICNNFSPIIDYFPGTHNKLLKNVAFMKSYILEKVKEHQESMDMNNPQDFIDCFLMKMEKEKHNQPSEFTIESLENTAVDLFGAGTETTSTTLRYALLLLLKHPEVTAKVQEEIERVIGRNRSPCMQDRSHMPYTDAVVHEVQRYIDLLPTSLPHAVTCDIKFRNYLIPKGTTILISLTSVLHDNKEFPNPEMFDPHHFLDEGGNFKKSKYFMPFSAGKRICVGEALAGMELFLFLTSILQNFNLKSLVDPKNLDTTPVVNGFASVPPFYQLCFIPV
# [10] = biological target: T2, Cytochrome P450 1A2 (Homo sapiens, UniProt P05177);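 note: PubChem cytochrome P450 panel assay, CYP1A2 panel member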
# T2 sequence (P05177 whole entry): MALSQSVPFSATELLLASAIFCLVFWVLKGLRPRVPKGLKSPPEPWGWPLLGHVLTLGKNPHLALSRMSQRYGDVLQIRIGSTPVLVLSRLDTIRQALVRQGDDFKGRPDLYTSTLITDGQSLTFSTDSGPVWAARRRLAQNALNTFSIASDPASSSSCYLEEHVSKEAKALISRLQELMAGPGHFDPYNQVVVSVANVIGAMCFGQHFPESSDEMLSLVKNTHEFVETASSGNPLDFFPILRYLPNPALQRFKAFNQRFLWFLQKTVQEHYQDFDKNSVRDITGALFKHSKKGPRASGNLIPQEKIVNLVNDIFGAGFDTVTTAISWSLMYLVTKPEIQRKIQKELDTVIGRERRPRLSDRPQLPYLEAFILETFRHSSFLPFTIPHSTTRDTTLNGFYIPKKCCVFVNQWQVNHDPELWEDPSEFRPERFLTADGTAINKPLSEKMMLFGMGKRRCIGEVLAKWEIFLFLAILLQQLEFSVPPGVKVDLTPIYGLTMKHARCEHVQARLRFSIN
# [11] = off-target signal loss in HeLa-CEM21 co-culture – HeLa F-luc CTL cells, cherry-picked, counter-screen for HIV-1 Env fusion inhibitor project, dose response (AID 652040); type: functional, cell-based;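 note: potency for signal decrease marking cytotoxic or nonspecific inhibition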
# [12] = ZM109 Env clade C HIV-1 fusion inhibitors, dose response, HeLa effector, CEM target cells, luciferase, cherry-pick (AID 652058); type: functional, cell-based
# [13] = inhibitors of clade B AD8 Env fusion, dose response, cell-based, cherry-pick (AID 652062); type: functional;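 note: luciferase signal from cell-cell fusion driven by HIV-1 clade B AD8 Env; potency is for inhibitors of fusion seen as a drop in luminescence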
# [14] = inhibitors of HIV Env-driven cell fusion, dose response, cherry-pick (AID 652057); type: functional, cell-based
# [15] = THP-1 cell cytotoxicity, dose response, cytotoxicity control for Vif-APOBEC3G degradation inhibitor project, THP-1 cells (AID 1117359); type: functional; conditions: Human immunodeficiency virus 1, THP-1
# [16] = growth suppression of beta-catenin-knockout colon cells, dose response, cell-based, HCT116, human colon tumor (AID 1045); type: functional;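 note: HCT116 colon tumor cells with beta catenin knocked out; cells exposed to compound for 60 hours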
# [17] = biological target: Induced myeloid leukemia cell differentiation protein Mcl-1 (Homo sapiens, UniProt Q07820); type: functional
# Sequence of Induced myeloid leukemia cell differentiation protein Mcl-1 (Q07820 whole entry): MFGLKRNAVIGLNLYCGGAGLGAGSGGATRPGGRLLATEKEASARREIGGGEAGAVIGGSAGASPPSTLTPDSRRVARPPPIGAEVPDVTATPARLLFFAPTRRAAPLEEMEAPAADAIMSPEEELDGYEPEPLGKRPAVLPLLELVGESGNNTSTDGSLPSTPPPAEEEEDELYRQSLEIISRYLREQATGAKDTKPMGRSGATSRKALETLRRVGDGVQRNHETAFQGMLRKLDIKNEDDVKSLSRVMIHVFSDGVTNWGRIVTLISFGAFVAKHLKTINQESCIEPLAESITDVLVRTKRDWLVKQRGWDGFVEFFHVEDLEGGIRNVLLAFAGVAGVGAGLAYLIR
# [18] = LGR2 antagonists, dose response, cell-based, HEK293, CRE-luciferase reporter, cherry pick, set 2 (AID 743343); type: functional;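 note: transfected cells were stimulated with diluted bursicon conditioned medium after compound addition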
# [19] = MC4R antagonists, dose response, counter-screen for LGR2 antagonist project, cell-based, plate reader, cherry pick (AID 743444); type: functional;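 note: transfected HEK 293 cells stimulated with alpha-MSH peptide; potency of inhibitors of the alpha-MSH evoked signal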
# [20] = cells; type: functional, cell-based
# [21] = cells; type: functional, cell-based; remark: listed apart in the source
# [22] = A cytotoxicity screen of small molecule inhibitors of the PhoP region in Salmonella typhi identified in the primary screen. [Related pubchem assays: 1850, 1864, 1985 ]; type: functional
# [23] = biological target: T1, Cytochrome P450 3A4; conditions: Potency
# [24] = biological target: T3, Carboxy-terminal domain RNA polymerase II polypeptide A small phosphatase 1 (Homo sapiens, UniProt Q9GZU7); experiment: inhibitors of CTDSP1, concentration-response testing, biochemical assay, absorbance-based, actives from ultra-high-throughput screening (AID 540297); type: functional
# T3 sequence (Q9GZU7 whole entry): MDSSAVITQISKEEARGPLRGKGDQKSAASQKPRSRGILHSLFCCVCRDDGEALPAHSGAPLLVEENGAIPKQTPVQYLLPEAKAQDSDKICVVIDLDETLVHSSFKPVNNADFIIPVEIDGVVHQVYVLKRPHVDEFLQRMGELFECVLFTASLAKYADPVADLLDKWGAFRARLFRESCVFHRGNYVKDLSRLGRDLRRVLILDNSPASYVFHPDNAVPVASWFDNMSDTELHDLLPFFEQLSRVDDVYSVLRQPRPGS
# [25] = biological target: T4, Estrogen receptor (Homo sapiens, UniProt P03372);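 note: potency for inhibiting coactivator peptide recruitment to the receptor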
# T4 sequence (P03372 whole entry): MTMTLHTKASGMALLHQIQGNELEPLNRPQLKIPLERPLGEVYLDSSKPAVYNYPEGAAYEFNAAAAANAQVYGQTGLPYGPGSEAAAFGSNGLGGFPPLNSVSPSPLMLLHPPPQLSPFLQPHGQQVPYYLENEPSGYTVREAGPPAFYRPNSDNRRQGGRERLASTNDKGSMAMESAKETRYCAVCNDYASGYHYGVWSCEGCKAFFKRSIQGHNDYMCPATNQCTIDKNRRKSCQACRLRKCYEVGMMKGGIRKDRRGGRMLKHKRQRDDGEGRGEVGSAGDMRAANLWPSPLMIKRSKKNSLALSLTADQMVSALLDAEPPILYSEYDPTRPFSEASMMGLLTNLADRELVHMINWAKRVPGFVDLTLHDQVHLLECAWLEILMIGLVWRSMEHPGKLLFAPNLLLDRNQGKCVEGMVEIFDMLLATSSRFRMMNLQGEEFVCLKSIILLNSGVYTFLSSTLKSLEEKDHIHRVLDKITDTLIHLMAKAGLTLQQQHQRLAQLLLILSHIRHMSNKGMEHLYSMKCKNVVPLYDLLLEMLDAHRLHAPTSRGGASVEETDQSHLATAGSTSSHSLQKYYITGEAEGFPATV
# [26] = biological target: Cytochrome P450 2C19 (Homo sapiens, UniProt P33261); experiment: Cytochrome panel assay with activity outcomes. Panel member name: p450-cyp2c19 Compounds with AC50 equal or less than 10 uM are considered active; type: functional; conditions: read-out: AC50
# Sequence of Cytochrome P450 2C19 (P33261 whole entry, the tested form may be a part): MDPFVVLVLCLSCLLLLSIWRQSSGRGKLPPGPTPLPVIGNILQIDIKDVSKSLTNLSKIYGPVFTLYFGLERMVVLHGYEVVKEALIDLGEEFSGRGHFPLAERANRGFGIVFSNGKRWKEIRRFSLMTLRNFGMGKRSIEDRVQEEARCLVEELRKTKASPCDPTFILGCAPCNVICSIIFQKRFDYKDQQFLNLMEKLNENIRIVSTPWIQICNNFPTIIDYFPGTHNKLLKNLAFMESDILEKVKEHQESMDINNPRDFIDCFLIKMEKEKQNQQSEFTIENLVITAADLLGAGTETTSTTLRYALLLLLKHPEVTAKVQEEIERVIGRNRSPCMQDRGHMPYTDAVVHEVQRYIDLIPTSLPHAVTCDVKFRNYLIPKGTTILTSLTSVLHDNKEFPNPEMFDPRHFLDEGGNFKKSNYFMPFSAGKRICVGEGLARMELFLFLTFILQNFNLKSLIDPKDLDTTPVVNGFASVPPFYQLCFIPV
# [27] = biological target: T5, Fatty acid synthase (Homo sapiens, UniProt P49327); experiment: FAS thioesterase domain inhibitors, dose response, biochemical, kinetic fluorescence intensity (AID 624326); type: functional;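 note: rate of fluorescence rise from hydrolysis of a fluorogenic O-methyl fluorescein ester substrate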
# T5 sequence (P49327 whole entry, the tested form may be a part): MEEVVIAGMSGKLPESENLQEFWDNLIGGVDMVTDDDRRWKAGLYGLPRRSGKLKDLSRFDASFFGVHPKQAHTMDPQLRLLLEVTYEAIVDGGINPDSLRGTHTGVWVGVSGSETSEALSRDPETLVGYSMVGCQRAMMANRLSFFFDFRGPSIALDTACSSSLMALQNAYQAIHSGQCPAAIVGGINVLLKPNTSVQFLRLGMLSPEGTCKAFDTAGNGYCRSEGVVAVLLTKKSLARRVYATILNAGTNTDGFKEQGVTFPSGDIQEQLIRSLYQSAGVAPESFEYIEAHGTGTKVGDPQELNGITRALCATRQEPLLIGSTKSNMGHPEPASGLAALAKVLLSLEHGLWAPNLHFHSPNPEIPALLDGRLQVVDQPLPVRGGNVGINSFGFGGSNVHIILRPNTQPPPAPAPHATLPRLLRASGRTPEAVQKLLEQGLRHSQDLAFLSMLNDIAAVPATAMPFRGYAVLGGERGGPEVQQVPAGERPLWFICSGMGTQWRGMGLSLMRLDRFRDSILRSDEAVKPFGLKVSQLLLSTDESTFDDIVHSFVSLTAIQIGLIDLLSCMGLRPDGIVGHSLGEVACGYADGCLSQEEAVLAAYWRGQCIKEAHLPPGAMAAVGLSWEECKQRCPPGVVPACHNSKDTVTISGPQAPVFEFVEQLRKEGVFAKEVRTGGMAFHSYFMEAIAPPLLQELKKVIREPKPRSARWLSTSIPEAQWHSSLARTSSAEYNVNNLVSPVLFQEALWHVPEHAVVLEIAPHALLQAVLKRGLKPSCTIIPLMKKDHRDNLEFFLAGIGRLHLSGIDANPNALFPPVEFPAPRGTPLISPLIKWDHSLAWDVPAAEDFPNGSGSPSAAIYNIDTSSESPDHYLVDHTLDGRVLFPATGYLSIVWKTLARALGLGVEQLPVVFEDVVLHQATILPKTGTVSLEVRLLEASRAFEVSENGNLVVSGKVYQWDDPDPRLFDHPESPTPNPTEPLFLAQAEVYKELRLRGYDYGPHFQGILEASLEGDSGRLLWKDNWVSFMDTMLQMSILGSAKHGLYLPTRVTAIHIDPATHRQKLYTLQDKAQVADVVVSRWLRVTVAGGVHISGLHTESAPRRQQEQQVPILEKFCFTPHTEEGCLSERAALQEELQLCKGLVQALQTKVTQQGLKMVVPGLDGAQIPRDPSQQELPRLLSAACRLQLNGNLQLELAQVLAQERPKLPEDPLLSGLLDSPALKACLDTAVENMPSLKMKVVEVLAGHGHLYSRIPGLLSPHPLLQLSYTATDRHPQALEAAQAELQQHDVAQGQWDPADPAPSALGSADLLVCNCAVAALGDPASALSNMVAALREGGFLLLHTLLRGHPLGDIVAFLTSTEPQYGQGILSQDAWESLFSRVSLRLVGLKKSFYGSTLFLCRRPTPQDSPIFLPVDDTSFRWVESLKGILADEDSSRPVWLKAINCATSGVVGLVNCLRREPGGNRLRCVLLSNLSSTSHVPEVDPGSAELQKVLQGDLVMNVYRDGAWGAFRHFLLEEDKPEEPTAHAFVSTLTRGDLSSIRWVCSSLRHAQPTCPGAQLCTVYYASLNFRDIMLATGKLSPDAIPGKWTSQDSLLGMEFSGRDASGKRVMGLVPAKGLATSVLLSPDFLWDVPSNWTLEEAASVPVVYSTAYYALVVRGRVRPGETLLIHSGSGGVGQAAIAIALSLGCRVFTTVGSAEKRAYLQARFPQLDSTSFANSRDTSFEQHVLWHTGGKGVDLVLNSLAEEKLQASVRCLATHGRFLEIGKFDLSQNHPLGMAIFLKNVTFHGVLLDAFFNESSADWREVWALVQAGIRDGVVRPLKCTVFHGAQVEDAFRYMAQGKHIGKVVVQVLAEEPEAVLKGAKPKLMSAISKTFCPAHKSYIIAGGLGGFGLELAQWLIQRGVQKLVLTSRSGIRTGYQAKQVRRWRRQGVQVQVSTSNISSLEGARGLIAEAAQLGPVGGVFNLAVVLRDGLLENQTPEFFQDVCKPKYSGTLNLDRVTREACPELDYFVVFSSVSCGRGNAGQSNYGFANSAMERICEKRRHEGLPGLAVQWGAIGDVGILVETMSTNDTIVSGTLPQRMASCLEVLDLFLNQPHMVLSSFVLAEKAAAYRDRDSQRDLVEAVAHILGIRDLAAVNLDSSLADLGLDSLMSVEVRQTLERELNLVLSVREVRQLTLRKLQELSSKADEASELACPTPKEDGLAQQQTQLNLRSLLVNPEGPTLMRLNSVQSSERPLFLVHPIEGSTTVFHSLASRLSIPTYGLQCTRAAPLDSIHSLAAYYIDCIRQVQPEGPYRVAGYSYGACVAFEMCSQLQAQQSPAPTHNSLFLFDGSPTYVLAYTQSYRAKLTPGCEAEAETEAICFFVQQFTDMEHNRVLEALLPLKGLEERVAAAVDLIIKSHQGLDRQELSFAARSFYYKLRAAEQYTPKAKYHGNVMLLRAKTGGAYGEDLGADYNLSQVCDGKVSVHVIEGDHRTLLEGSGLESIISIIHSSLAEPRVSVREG
# [28] = biological target: T5, Fatty acid synthase; experiment: FAS thioesterase domain inhibitors, dose response, biochemical, endpoint fluorescence intensity, uHTS hits (AID 624327); type: functional;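 note: fluorescence from hydrolysis of an O-methyl fluorescein acyl ester substrate by the enzyme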
# [29] = biological target: Nonstructural protein 1 (Influenza A virus, UniProt Q194T2); type: functional, Influenza A virus (A/California/07/2009(H1N1))
# Sequence of Nonstructural protein 1 (Q194T2 whole entry): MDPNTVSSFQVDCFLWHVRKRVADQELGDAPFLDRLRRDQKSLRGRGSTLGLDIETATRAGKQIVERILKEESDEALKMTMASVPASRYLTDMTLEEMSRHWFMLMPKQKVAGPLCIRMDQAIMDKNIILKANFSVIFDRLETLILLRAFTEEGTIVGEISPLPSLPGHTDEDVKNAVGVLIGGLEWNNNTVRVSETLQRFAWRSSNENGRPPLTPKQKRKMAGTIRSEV
smiles,measurement,setting,value
C[C@H]1CN([C@@H](C)CO)C(=O)c2c(c3ccccc3n2C)-c2ccccc2CO[C@H]1CN(C)S(=O)(=O)c1ccc(C(F)(F)F)cc1,AC50,[1],< 0.3 µM (active)
same,AC50,[2],0.23 µM (active)
same,AC50,[3],32.1 µM (active)
same,AC50,[4],0.251 µM (active)
same,AC50,[5],50.8 µM (active)
same,AC50,[6],0.216 µM (active)
same,AC50,[7],3.69 µM (active)
Oc1ccc(Cn2cc[nH]c2=S)cc1,AC50,[8],15.8 µM (inconclusive)
same,AC50,[9],inconclusive
same,AC50,[10],6.31 µM (inconclusive)
CCCCN1CC(=O)N2[C@H]3c4ccccc4OC[C@@H]3[C@H](c3ccccc3)[C@]2(C)C1=O,AC50,[11],4.48 µM (active)
same,AC50,[12],0.448 µM (active)
same,AC50,[13],29.7 µM (active)
same,AC50,[14],3.64 µM (active)
CCN(CC)c1ccc(NC2=C(Cl)C(=O)c3ccccc3C2=O)cc1,CC50,[15],4.24 µM (active)
same,EC50,[16],1 µM (active)
same,IC50,[17],1.47 µM (active)
O=C(O)c1ccc(-c2noc(-c3ccccc3Cl)n2)cc1,AC50,[18],28.3 µM (active)
same,AC50,[19],32.9 µM (active)
CCN(CC)S(=O)(=O)c1ccc(/C=C/C(=O)Nc2ccc(N3CCOCC3)cc2)cc1,CC50,[15],> 40 µM (active)
Cn1nc(C(=O)NCCCN2CCCCC2)c2c1-c1ccccc1S(=O)(=O)C2,EC50,[20],> 350 µM (not active)
same,EC50,[21],> 350 µM (not active)
CCO/C(O)=C/c1nc2ccccc2sc1=O,AC50,[11],5.57 µM (active)
same,AC50,[12],5.06 µM (active)
same,AC50,[13],3 µM (active)
same,AC50,[14],5.7 µM (active)
Cc1cc(NS(=O)(=O)c2ccc(NC(=O)C(C)Oc3ccc4c(C)cc(=O)oc4c3)cc2)no1 (stereo not drawn),EC50,[22],> 50 µM (active)
C=CCC1(C)OC=Cc2nc3cc(Cl)c(Cl)cc3nc21 (stereo not drawn),AC50,[23],3.98 µM (inconclusive)
CC[C@@]1(C(=O)OC)N[C@H](CN(C)C(=O)Nc2ccc(F)cc2)[C@@H]2C(=O)N(Cc3ccccc3)C(=O)[C@@H]21,AC50,[11],0.744 µM (active)
same,AC50,[12],0.378 µM (active)
same,AC50,[13],0.614 µM (active)
same,AC50,[14],0.401 µM (active)
O=C(CC(=O)NCc1ccccc1)NCc1ccccc1,EC50,[22],> 50 µM (active)
Nc1nnc(CC(=O)N/N=C/c2cccc([N+](=O)[O-])c2)s1,AC50,[9],inconclusive
same,AC50,[10],31.6 µM (inconclusive)
O=C(CCCCCN1C(=O)c2ccccc2C1=O)Nc1ccc2c(c1)OCCO2,EC50,[20],> 350 µM (not active)
same,EC50,[21],> 350 µM (not active)
Cc1cc(C)cc(NC(=O)c2cccc(NC(=O)c3ccco3)c2)c1,EC50,[20],34.9 µM (active)
same,EC50,[21],> 350 µM (not active)
COc1ccc2cc(C(=O)Nc3ccc(F)cc3)sc(=O)c2c1OC,AC50,[9],inconclusive
same,IC50,[24],6.77 µM (active)
O=C(CCC(=O)c1cccs1)Nc1nnc(C2CC2)s1,IC50,[25],> 50 µM (not active)
CCC(C)NC(=O)CSc1ccc(S(=O)(=O)N2CCN(Cc3ccccc3)CC2)cn1 (stereo not drawn),CC50,[15],> 40 µM (active)
C=C[C@H]1CN2CC[C@H]1C[C@H]2c1[nH]c2ccccc2c1CCO [CINCHONAMINE],AC50,[23],31.6 µM (inconclusive)
C[C@H]1CCCCO[C@H](CN(C)C(=O)Nc2ccc(F)cc2)[C@@H](C)CN([C@@H](C)CO)C(=O)c2cc(NC(=O)Nc3ccc(C(F)(F)F)cc3)ccc2O1,AC50,[5],58.3 µM (active)
same,AC50,[7],8.09 µM (active)
O=C(Nc1cccn2ncnc12)c1ccc(Cl)cc1Cl,AC50,[9],inconclusive
same,AC50,[26],11.2 µM (inconclusive)
CC1(C)CC2C1CCC1(C)OC1CCC2(C)O (stereo not drawn) [2-HYDROXY-5 (6)EPOXY-TETRAHYDROCARYOPHYLLENE],AC50,[23],25.1 µM (inconclusive)
Cn1c(=O)c2nc(COc3ccc(C(C)(C)C)cc3)[nH]c2n(C)c1=O,IC50,[27],6.26 µM (active)
same,IC50,[28],4.28 µM (active)
C=CCN(c1ccccc1)S(=O)(=O)c1cccc(C(=O)Nc2ncccc2O)c1,EC50,[20],> 350 µM (not active)
same,EC50,[21],> 350 µM (not active)
CCCn1c(C)nc2c(Nc3ccccc3)nc(C)nc21,AC50,[23],31.6 µM (inconclusive)
Cn1c(CN2CCCC2)nc2cc(NC(=O)COc3ccc(Cl)cc3)ccc21,EC50,[22],> 50 µM (active)
Cc1cc(C(=O)N/N=C/c2cc([N+](=O)[O-])ccc2O)c2ccccc2n1,IC50,[27],2.75 µM (active)
same,IC50,[29],5.29 µM (active)
same,IC50,[28],3.18 µM (active)
CCOC(=O)C1=CC[C@H]2c3c(c4ccccc4n3C)C(=O)C1N2C(=O)OC(C)(C)C,IC50,[27],11.9 µM (active)
same,IC50,[28],10.8 µM (active)
Clc1cccc(CN2C3=NCCCN3c3ccccc32)c1,EC50,[22],> 50 µM (active)
O=C(Nc1ccc2oc(-c3ccccc3F)nc2c1)c1cncc(Br)c1,IC50,[25],15.5 µM (active)
CC(C)CC#Cc1ccc2c(c1)O[C@H](CN(C)Cc1ccc(F)cc1)[C@H](C)CN([C@H](C)CO)S2(=O)=O,AC50,[5],61.2 µM (active)
same,AC50,[7],23.1 µM (active)
COc1ccc(-c2cc([N+](=O)[O-])ccc2OCC(=O)N(C)CC(=O)Nc2ccc(C)cc2)cc1,IC50,[27],7.78 µM (active)
same,IC50,[28],7.56 µM (active)
CNC(=O)/C(=C\C=C\c1ccccc1)NC(=O)c1ccc([N+](=O)[O-])cc1,IC50,[27],0.809 µM (active)
same,IC50,[28],0.786 µM (active)
